# Experimental data as given in US9487482B2, “3,4,5-trimethoxystyrylarylaminopropenones as potential anticancer agents” (Council of Scientific and Industrial Research, priority 2014, dated 2016).
# Columns and labels:
# HeLa cells = assay: In vitro cytotoxicity, MTT assay, HeLa; format: cell-based, human; settings: HeLa (cervical carcinoma), 48 h continuous drug exposure
# Protocol: (§1) All cell lines used in this study were purchased from the American Type Culture Collection (ATCC, United States). A549, MCF-7, and HeLa were grown in Dulbecco's modified Eagle's medium (containing 10% FBS in a humidified atmosphere of 5% CO2 at 37° C.). HCT116 cells were cultured in Eagle's minimal essential medium (MEM) containing non-essential amino acids, 1 mM sodium pyruvate, […] bovine insulin, and 10% FBS. Cells were trypsinized when sub-confluent from T25 flasks/60 mm dishes and seeded in 96-well plates. The synthesized test compounds were evaluated for their in vitro antiproliferative in four different human cancer cell lines. A protocol of 48 h continuous drug exposure was used, and a MTT cell proliferation assay was used to estimate cell viability or growth. The cell lines were grown in their respective media containing 10% fetal bovine serum and were seeded into 96-well microtiter plates in 200 μL, aliquots at plating densities depending on the doubling time of individual cell lines. The microtiter plates were incubated at 37° C., 5% CO2, 95% air, and 100% relative humidity for 24 h prior to addition of experimental drugs. Aliquots of 2 μL, of the test compounds were added to the wells already containing 198 μL, of cells, resulting in the required final drug concentrations. For each compound, four concentrations (1, 10, 100, and 1000 μM) were evaluated, and each was done in triplicate wells. Plates were incubated further for 48 h, and the assay was terminated by the addition of 10 μL, of 5% MTT and incubated for 60 min at 37° C. Later, the plates were air-dried. Bound stain was subsequently eluted with 100 μL, of DMSO, and the absorbance was read on an multimode plate reader (Tecan M200) at a wavelength of 560 nm. Percent growth was calculated on a plate by plate basis for test wells relative to control wells. The above determinations were repeated thrice. The growth inhibitory effects of the compounds were analyzed by generating dose response curves as a plot of the percentage surviving cells versus compound concentration. The sensitivity of the cancer cells to the test compound was expressed in terms of IC50, a value defined as the concentration of compound that produced 50% reduction as compared to the control absorbance. (A. S. Kumar, M. A. Reddy, N. Jain, C. Kishor, T. R. Murthy, D. Ramesh, B. Supriya, A. Addlagatta, S. V. Kalivendi, B. Sreedhar. Eur. J. Med. Chem. 60 (2013) 305-24).
# MCF-7 cells = assay: In vitro cytotoxicity, MTT assay, MCF-7; format: cell-based, human; settings: 48 h continuous drug exposure
# Protocol: as §1
# A549 cells = assay: In vitro cytotoxicity, MTT assay, A549; format: cell-based, human; settings: A549 (non-small cell lung cancer), 48 h continuous drug exposure
# Protocol: as §1
# HCT116 cells = assay: In vitro cytotoxicity, MTT assay, HCT116; format: cell-based, human; settings: 48 h continuous drug exposure
# Protocol: as §1
# [1] = test system: A549, HeLa, MCF-7 and HCT116 cells; assay: In vitro cytotoxicity, MTT assay, summary over all four cancer cell lines; format: cell-based; settings: Homo sapiens, range over the group of compounds and the four cell lines, read-out: IC50 value range towards all the cancer cell lines
# Protocol: as §1
# [2] = Homo sapiens, MCF7, 48 h, MCF-7 (breast cancer)
# [3] = Homo sapiens, HCT-116, HCT116 (colon carcinoma)
# [4] = Homo sapiens, MCF7, MCF-7 (breast cancer)
Structure (SMILES),IC50 (HeLa cells) [µM],IC50 (MCF-7 cells; MCF-7 (breast cancer)) [µM],IC50 (A549 cells) [µM],IC50 (HCT116 cells; HCT116 (colon carcinoma)) [µM],IC50 (HeLa cells; Homo sapiens) [µM],IC50 [1] [nM],IC50 (MCF-7 cells; [2]) [µM],IC50 (A549 cells; Homo sapiens) [µM],IC50 (HCT116 cells; [3]) [µM],IC50 (MCF-7 cells; [4]) [µM]
"COc1ccc(/C=C\c2cc(OC)c(OC)c(OC)c2)cc1OP(=O)(O)O [Ca-4, Combretastatin, reference compound]",0.58,0.58,0.31,3.98,,,,,,
"COc1ccc(/C=C\c2cc(OC)c(OC)c(OC)c2)cc1N/C=C\C(=O)c1ccc(OC(F)(F)F)cc1 [Compound 10o, (Z)-3-((2-methoxy-5-((Z)-3,4,5-trimethoxystyryl)phenyl)amino)-1-(4-(trifluoromethoxy)phenyl)prop-2-en-1-one]",,,,,0.26,110 to 4680,1.32,2.69,2.95,
"COc1ccc(C(=O)/C=C\Nc2cc(/C=C\c3cc(OC)c(OC)c(OC)c3)ccc2OC)cc1O [Compound 10q, (Z)-1-(3-hydroxy-4-methoxyphenyl)-3-((2-methoxy-5-((Z)-3,4,5-trimethoxystyryl)phenyl)amino)prop-2-en-1-one]",,,,,0.23,110 to 4680,4.68,3.89,0.83,
"COc1ccc(/C=C\c2cc(OC)c(OC)c(OC)c2)cc1N/C=C\C(=O)c1ccc(OC)c([N+](=O)[O-])c1 [Compound 10t, (Z)-1-(4-methoxy-3-nitrophenyl)-3-((2-methoxy-5-((Z)-3,4,5-trimethoxystyryl)phenyl)amino)prop-2-en-1-one]",,,,,0.21,110 to 4680,2,0.77,1.29,
"COc1ccc(C(=O)/C=C\Nc2cc(/C=C\c3cc(OC)c(OC)c(OC)c3)ccc2OC)cc1N [Compound 10u, (Z)-1-(3-amino-4-methoxyphenyl)-3-((2-methoxy-5-((Z)-3,4,5-trimethoxystyryl)phenyl)amino)prop-2-en-1-one]",,,,,0.52,110 to 4680,,2.4,0.77,0.25
"COc1ccc(C=Cc2cc(OC)c(OC)c(OC)c2)cc1N/C=C\C(=O)c1c[nH]c2ccccc12 [Compound 10v, (Z)-1-(1H-indol-3-yl)-3-(2-methoxy-5-(3,4,5-trimethoxystyryl)phenylamino)prop-2-en-1-one]",,,,,0.53,110 to 4680,0.11,0.17,0.33,
"COc1ccc(C=Cc2cc(OC)c(OC)c(OC)c2)cc1N/C=C\C(=O)c1cn(C)c2ccccc12 [Compound 10w, (Z)-3-(2-methoxy-5-(3,4,5-trimethoxystyryl)phenylamino)-1-(1-methyl-1H-indol-3-yl)prop-2-en-1-one]",,,,,0.46,110 to 4680,1.07,0.67,0.37,
"COc1ccc(/C=C\c2cc(OC)c(OC)c(OC)c2)cc1N/C=C\C(=O)c1cc(OC)c(OC)c(OC)c1 [Compound 10x, (Z)-3-((2-methoxy-5-((Z)-3,4,5-trimethoxystyryl)phenyl)amino)-1-(3,4,5-trimethoxyphenyl)prop-2-en-1-one]",,,,,0.26,110 to 4680,0.27,1.68,1.51,
"COc1ccc(/C=C\c2cc(OC)c(OC)c(OC)c2)cc1N/C=C\C(=O)c1cc(OC)c(OC)c(OC)c1Br [Compound 10y, (Z)-1-(2-bromo-3,4,5-trimethoxyphenyl)-3-((2-methoxy-5-((Z)-3,4,5-trimethoxystyryl)phenyl)amino)prop-2-en-1-one]",,,,,0.25,110 to 4680,2.95,3.51,3.98,
"COc1cc(/C=C\c2cc(OC)c(OC)c(OC)c2)cc(N/C=C\C(=O)c2ccc(OC(F)(F)F)cc2)c1OC [Compound 11o, (Z)-3-((2,3-dimethoxy-5-((Z)-3,4,5-trimethoxystyryl)phenyl)amino)-1-(4-(trifluoromethoxy)phenyl)prop-2-en-1-one]",,5.75,,,1.86,120 to 5750,5.7,0.21,7.08,
"COc1ccc(C(=O)/C=C\Nc2cc(/C=C\c3cc(OC)c(OC)c(OC)c3)cc(OC)c2OC)cc1O [Compound 11q, (Z)-3-((2,3-dimethoxy-5-((Z)-3,4,5-trimethoxystyryl)phenyl)amino)-1-(3-hydroxy-4-methoxyphenyl)prop-2-en-1-one]",,,,,1.91,120 to 5750,2.09,0.32,3.24,
"COc1ccc(C(=O)/C=C\Nc2cc(/C=C\c3cc(OC)c(OC)c(OC)c3)cc(OC)c2OC)cc1[N+](=O)[O-] [Compound 11t, (Z)-3-((2,3-dimethoxy-5-((Z)-3,4,5-trimethoxystyryl)phenyl)amino)-1-(4-methoxy-3-nitrophenyl)prop-2-en-1-one]",,,,,1.2,120 to 5750,1.55,0.15,4.79,
"COc1ccc(C(=O)/C=C\Nc2cc(/C=C\c3cc(OC)c(OC)c(OC)c3)cc(OC)c2OC)cc1N [Compound 11u, (Z)-1-(3-amino-4-methoxyphenyl)-3-((2,3-dimethoxy-5-((Z)-3,4,5-trimethoxystyryl)phenyl)amino)prop-2-en-1-one]",,,,,4.27,120 to 5750,5.25,0.12,7.59,
"COc1cc(C=Cc2cc(OC)c(OC)c(OC)c2)cc(N/C=C\C(=O)c2c[nH]c3ccccc23)c1OC [Compound 11v, (Z)-3-(2,3-dimethoxy-5-(3,4,5-trimethoxystyryl)phenylamino)-1-(1H-indol-3-yl)prop-2-en-1-one]",,,,,0.67,120 to 5750,,0.56,1.48,3.02
"COc1cc(C=Cc2cc(OC)c(OC)c(OC)c2)cc(N/C=C\C(=O)c2cn(C)c3ccccc23)c1OC [Compound 11w, (Z)-3-(2,3-dimethoxy-5-(3,4,5-trimethoxystyryl)phenylamino)-1-(1-methyl-1H-indol-3-yl)prop-2-en-1-one]",,,,,5.89,120 to 5750,3.39,0.14,1.95,
"COc1cc(/C=C\c2cc(OC)c(OC)c(OC)c2)cc(N/C=C\C(=O)c2cc(OC)c(OC)c(OC)c2)c1OC [Compound 11x, (Z)-3-((2,3-dimethoxy-5-((Z)-3,4,5-trimethoxystyryl)phenyl)amino)-1-(3,4,5-trimethoxyphenyl)prop-2-en-1-one]",,,,,3.72,120 to 5750,7.08,3.33,0.28,
"COc1cc(/C=C\c2cc(OC)c(OC)c(OC)c2)cc(N/C=C\C(=O)c2cc(OC)c(OC)c(OC)c2Br)c1OC [Compound 11y, (Z)-1-(2-bromo-3,4,5-trimethoxyphenyl)-3-((2,3-dimethoxy-5-((Z)-3,4,5-trimethoxystyryl)phenyl)amino)prop-2-en-1-one]",,,,,1.58,120 to 5750,5.37,0.28,0.3,
"COc1ccc(/C=C\c2cc(OC)c(OC)c(OC)c2)c(N/C=C\C(=O)c2ccc(OC(F)(F)F)cc2)c1O [Compound 16o, (Z)-3-((2-hydroxy-3-methoxy-6-((Z)-3,4,5-trimethoxystyryl)phenyl)amino)-1-(4-(trifluoromethoxy)phenyl)prop-2-en-1-one]",,,,,7.08,180 to 7330,2.24,1.32,1.95,
"COc1ccc(C(=O)/C=C\Nc2c(/C=C\c3cc(OC)c(OC)c(OC)c3)ccc(OC)c2O)cc1O [Compound 16q, (Z)-3-((2-hydroxy-3-methoxy-6-((Z)-3,4,5-trimethoxystyryl)phenyl)amino)-1-(3-hydroxy-4-methoxyphenyl)prop-2-en-1-one]",,,,,4.17,180 to 7330,0.2,1.58,6.76,
